How the values were obtained:
Assay type in all cases: cell-based
Human NOD2 = target: T1, Human NOD2 (Homo sapiens, UniProt Q9HC29); assay: Human NLR antagonist screening, NF-κB SEAP reporter in HEK293 cells; details: antagonist mode, Ami 1 μM, +L18-MDP 50 ng/mL, No Sample 18, Control− 1
T1 construct: expressed in transfected cells; host or cells: HEK293
Method: Toll-Like Receptor (TLR), NOD-Like Receptor (NLR) and C-Type Lectin Receptor (CLR) stimulation were tested by assessing NF-κB activation in HEK293 cells expressing a given TLR, NLR or CLR. The activity of the test articles was tested at one concentration and compared to control ligands. These steps were performed in triplicate. hNOD2: L18-MDP at 100 ng/mL Antagonist: 50 ng/mL. In a 96-well plate (200 μL total volume) containing the appropriate cells (50,000-75,000 cells/well), 20 μL of the test article or the positive control ligand was added to the wells. For the antagonist assay, the test article was incubated with the cells, at 37° C. with 5% CO2, for 30 minutes prior to the addition of the positive control ligand to the wells. The media added to the wells was designed for the detection of NF-κB induced SEAP expression. After a 16-24 hr incubation the optical density (OD) was read at 650 nm on a Molecular Devices SpectraMax 340PC absorbance detector. Fold induction (ratio of average induced value to average non-induced value) was determined for each TLR, NOD1, NOD2, Dectin-1a, Dectin-1b.

human RIG-I = target: T2, human RIG-I (Homo sapiens, UniProt O95786); assay: Human RLR antagonist screening, IRF3 luciferase reporter in HEK293 cells; details: antagonist mode, Ami 1 μM
T2 construct: expressed in transfected cells; host or cells: HEK293
T2 sequence (O95786 whole entry): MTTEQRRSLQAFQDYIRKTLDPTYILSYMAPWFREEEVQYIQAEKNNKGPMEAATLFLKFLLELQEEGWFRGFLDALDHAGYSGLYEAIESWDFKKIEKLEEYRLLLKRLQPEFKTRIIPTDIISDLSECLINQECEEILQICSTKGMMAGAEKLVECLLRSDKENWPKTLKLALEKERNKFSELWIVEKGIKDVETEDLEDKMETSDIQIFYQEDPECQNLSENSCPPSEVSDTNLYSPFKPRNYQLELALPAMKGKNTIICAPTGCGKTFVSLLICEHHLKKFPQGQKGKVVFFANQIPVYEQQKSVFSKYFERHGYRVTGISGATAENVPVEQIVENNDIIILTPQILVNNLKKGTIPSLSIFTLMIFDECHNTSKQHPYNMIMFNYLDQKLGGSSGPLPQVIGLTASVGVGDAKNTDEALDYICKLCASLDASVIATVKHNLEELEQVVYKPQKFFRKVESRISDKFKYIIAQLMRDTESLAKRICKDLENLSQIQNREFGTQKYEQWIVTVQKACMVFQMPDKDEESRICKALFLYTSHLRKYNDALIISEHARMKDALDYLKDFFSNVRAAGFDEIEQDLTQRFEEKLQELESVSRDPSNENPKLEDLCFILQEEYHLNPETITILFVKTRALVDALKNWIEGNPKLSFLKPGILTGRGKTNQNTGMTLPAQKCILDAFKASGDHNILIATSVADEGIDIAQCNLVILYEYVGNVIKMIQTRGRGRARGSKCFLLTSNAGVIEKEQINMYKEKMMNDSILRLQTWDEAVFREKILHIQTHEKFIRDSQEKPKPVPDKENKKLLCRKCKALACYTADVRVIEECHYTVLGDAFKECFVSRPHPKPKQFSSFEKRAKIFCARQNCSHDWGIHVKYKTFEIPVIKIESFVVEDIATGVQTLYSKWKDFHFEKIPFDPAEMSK
Method: (§1) RIG-I and MDA-5 stimulation were tested by assessing IRF3 activation in HEK293 cells expressing human RIG-I or MDA-5 genes. The activity of the test articles was tested on human RIG-I and MDA-5 expressing cells as a potential agonist or antagonist. The test articles were evaluated at one concentration and compared to control ligands. This step was performed in triplicate. The results are provided as Relative Luminescence Units (RLUs). RIG-I/MDA-5: Poly(I:C)/LyoVec at 1 μg/mL Antagonist: 500 ng/mL. 5′ppp-dsRNA/LyoVec at 1 μg/mL Antagonist: 500 ng/mL. hIFNα at 1000 IU/mL. Antagonist: 100 IU/mL. In a 96-well plate (200 μL total volume) containing the appropriate cells (25,000-50,000 cells/well), 20 μL of the test article or of the positive control ligand was added to the wells. For the antagonist assay, the test article was incubated with the cells, at 37° C. with 5% CO2, for 30 minutes prior to the addition of the positive control ligand to the wells. After 20 hour incubation, activation of the IRF pathway was monitored using a luciferase detection assay. Luciferase activity was assayed in triplicate from the supernatant of the induced cells, and the relative luminescence units (RLUs) are detected by a Promega GloMax Luminometer. Fold induction (ratio of average induced value to average non-induced value).

human MDA-5 = target: T3, human MDA-5 (Homo sapiens, UniProt Q9BYX4); assay: as above; details: antagonist mode, Ami 1 μM
T3 construct: expressed in transfected cells; host or cells: HEK293
T3 sequence (Q9BYX4 1-1025): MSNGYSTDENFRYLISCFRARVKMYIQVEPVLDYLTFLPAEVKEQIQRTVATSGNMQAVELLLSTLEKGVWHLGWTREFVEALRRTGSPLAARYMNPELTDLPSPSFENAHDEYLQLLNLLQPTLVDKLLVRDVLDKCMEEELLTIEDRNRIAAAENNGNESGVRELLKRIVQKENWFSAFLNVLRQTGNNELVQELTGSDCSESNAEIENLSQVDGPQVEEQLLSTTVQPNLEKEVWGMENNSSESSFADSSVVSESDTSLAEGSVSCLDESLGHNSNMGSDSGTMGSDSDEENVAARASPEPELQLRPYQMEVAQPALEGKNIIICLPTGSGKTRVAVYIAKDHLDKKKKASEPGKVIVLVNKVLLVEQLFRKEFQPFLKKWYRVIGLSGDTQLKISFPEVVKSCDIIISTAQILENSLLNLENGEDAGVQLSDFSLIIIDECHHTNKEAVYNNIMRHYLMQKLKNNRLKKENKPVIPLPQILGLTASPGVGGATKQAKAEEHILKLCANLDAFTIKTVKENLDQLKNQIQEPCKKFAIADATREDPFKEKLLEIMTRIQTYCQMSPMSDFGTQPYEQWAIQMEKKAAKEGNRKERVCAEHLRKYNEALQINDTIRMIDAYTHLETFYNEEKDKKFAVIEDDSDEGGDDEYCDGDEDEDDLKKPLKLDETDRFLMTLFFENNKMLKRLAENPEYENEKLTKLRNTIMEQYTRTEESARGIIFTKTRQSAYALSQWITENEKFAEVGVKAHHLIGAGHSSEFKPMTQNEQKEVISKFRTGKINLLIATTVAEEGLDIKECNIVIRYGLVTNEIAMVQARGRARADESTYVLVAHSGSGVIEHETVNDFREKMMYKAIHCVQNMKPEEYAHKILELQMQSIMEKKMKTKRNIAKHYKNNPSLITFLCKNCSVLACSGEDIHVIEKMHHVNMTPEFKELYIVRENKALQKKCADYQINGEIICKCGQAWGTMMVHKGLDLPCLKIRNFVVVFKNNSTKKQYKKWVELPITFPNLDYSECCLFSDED
Method: as §1

T1 sequence (Q9HC29 whole entry): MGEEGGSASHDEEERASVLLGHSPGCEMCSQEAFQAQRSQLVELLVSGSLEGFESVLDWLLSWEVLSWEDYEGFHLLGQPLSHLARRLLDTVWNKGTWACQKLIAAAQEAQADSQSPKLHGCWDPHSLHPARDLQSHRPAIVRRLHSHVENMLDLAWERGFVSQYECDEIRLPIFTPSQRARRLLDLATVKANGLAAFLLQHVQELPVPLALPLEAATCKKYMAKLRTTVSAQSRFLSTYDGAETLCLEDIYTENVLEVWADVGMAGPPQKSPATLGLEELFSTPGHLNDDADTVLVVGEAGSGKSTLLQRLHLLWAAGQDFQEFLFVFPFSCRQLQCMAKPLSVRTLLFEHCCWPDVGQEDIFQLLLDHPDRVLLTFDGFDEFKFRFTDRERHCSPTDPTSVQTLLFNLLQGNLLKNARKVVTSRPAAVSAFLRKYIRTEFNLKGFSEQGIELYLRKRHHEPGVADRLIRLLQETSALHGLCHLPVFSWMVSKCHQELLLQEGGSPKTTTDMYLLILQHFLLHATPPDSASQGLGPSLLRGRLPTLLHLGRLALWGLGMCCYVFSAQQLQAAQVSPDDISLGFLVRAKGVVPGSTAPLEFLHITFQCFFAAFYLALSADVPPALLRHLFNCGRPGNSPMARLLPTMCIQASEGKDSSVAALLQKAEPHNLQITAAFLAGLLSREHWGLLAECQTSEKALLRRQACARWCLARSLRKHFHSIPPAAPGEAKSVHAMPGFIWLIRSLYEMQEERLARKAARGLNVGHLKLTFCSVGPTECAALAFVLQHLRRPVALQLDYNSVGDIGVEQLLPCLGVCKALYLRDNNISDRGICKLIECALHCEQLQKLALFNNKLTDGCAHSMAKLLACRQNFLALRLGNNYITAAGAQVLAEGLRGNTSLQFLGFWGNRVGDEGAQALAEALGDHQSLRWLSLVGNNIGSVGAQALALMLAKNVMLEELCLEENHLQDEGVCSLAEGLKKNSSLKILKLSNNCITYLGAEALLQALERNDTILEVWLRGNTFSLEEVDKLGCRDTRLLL

CN(C)CCC=C1c2ccccc2CCc2ccccc21 [Amitriptyline]
Fold Induction (Human NOD2): slight inhibitory effect
Fold Induction (Human NOD2; listed as Ami): 17
Fold induction (ratio of average induced value to average non-induced value) (human RIG-I; 5′ppp-dsRNA/LyoVec 500 ng/mL, No Sample 6, Control− 1): 6
Fold induction (ratio of average induced value to average non-induced value) (human RIG-I; Poly(I:C)/LyoVec 500 ng/mL, No Sample 16, Control− 1): 16
Fold induction (ratio of average induced value to average non-induced value) (human MDA-5; 5′ppp-dsRNA/LyoVec 500 ng/mL, No Sample 1, Control− 1): 1
Fold induction (ratio of average induced value to average non-induced value) (human MDA-5; Poly(I:C)/LyoVec 500 ng/mL, No Sample 9, Control− 1): 10
Fold induction (ratio of average induced value to average non-induced value) (human MDA-5; hIFNα 100 IU/mL, No Sample 255, Control− 1, listed as Ami): 192
